The experiment concerns the target T1, Gag-Pol polyprotein [588-1027]/[588-1147] (Human immunodeficiency virus 1, UniProt P04585).
T1 construct: 588-1027; 588-1147
Kind of experiment: HIV-1 RT Assay. The conditions noted are these: pH 8.2; 37 °C.

A value given as a limit tells only on which side of the number the result lay.

Usually IC50 stands for the concentration that gives 50% inhibition. High values mean lower potency, low ones higher potency.

`CC(=O)Nc1ccc2c(c1)C(C#CC(C)C)(C(F)(F)F)OC(=O)N2` (configuration not stated) yielded an IC50 greater than 2000 nM.
As to `CC(=O)Nc1ccc2c(c1)C(C#CC1CC1)(C(F)(F)F)OC(=O)N2` (configuration not stated), the IC50 is greater than 2000 nM.

These data come from BindingDB's records for doi:10.1016/s0960-894x(99)00565-x (Dupont Pharmaceuticals, 1999).
